Reference: US12403141B2, “Deuterated MK2 pathway inhibitors and methods of using the same” (ACLARIS THERAPEUTICS, INC., priority 2019, dated 2025)
Entries after “also recorded” stand apart in the source; their conditions may differ.

Experiments:
[1] = PO pharmacokinetics in male SD rats; type: in vivo, rat; details: PO 2 mpk
Experimental: Pharmacokinetic parameters of some examples were evaluated in male Sprague Dawley (SD) rats after intravenous (IV) and oral (PO) dosing. Male SD rats (5-6 weeks of age) were fasted for 12 hours before administration of the compound of interest. Animals were allowed access to food 2 h after dosing and water was given ad libitum. Except for the compound of Example 13, pharmacokinetic experiments comparing deuterium containing and non-deuterium containing compounds were performed at the same time using the same cohort of animals. The pharmacokinetic properties of the compound of Example 13 were evaluated separately and compared to previously generated data.
For oral (PO) dosing, a 0.2 mg/mL suspension of the test compound was prepared in a vehicle comprising 0.5% Tween-20 in 0.5% methyl cellulose in phosphate buffered saline (PBS). For a 2 mpk dose, 10 mL/kg of this dosing vehicle was administered by oral gavage. Blood samples from each animal was collected di-sodium EDTA coated containers at 0.25, 0.5, 1.0, 2.0, 4.0, 8.0 10.0 and 24.0 hours after dosing. Plasma was separated from the blood samples within 15 minutes following collection and stored at −20±5° C. before analysis.
A standard curve was generated from a stock solution of the test compound with known concentration in methanol. […]
Plasma samples collected from rats after dosing were allowed to reach room temperature. […] The supernatant (10 uL) was analyzed by LC-MS/MS (LC: Shimadzu SIL HTc, MS: MDS Sciex API-5500 & 4000 using 75%/25% acetonitrile/0.2% formic acid in Milli-Q water, flow rate: 1.0 mL/min, run time 3 minutes, Atlantis dC18(50×4.6 mm, 3 um; Waters®)) and the concentrations of the test compound in the plasma samples collected from rats at each time point were determined by comparison to the standard curve samples.
Pharmacokinetic parameters were calculated from the plasma concentrations at each time point using Phoenix WinNonlin (Version 7.0) by the non-compartmental analysis (NCA) method. […]

rat hepatocytes = assay: In vitro metabolite profile in rat hepatocytes; type: in vitro ADME; set-up: key to UV % at 280-290 nm or observed (+ or --), metabolite M532b (Hydroxylation) / UV % at 280-290 nm or observed (+ or --), metabolite M532d (Hydroxylation) / UV % at 280-290 nm or observed (+ or --), metabolite M532e (Hydroxylation) / UV % at 280-290 nm or observed (+ or --), metabolite M530b (Hydroxylation) / UV % at 280-290 nm or observed (+ or --), metabolite M530d (Hydroxylation) / UV % at 280-290 nm or observed (+ or --), metabolite M530e (Hydroxylation): +: only detected by MS; --: not detected or trace; details: 10 μM; for UV % at 280-290 nm, Parent-T0 min: T0 min (normalized as 100%)
Experimental: (§1) Briefly, each test compound (final concentration of 10 μM containing 0.1% DMSO) was incubated with rat, dog, minipig, monkey, or human hepatocytes (final viable cell density of 1×10^6 cells/mL) at 37° C. with 5% CO2 in HI hepatocyte maintenance media (BIOIVT; Catalog #Z99009) for 120 minutes. Reactions were initiated by combining 200 μL of pre-warmed 2× dosing solution containing 20 μM test compound and 0.2% DMSO in HI maintenance media with 200 μL of pre-warmed hepatocyte solution containing 2×10^6 cells/mL in HI maintenance media. Samples were taken at 0 minutes (T0) and 120 minutes (T120) by quenching the reaction with 1200 μL acetonitrile. After quenching, the samples were sonicated for 2 minutes and then centrifuged at 1400 rpm for 5 minutes. A 1400-μL aliquot of the supernatant was evaporated under a stream of N2 until dry. The dried extracts were then reconstituted with 200 μL acetonitrile: H2O (1:3 v/v), vortexed for 2 minutes and centrifuged at 14000 rpm for 5 minutes. A 2-μL aliquot of the supernatant was injected onto a Xevo UPLC-UV-G2-S Q-Tof system (Waters®) with positive-ion electrospray ionization for analysis. Chromatographic separation was achieved on an Acquity UPLC®BEH C18 column (2.1×50 mm, 1.7 μm; Waters®) by gradient elution using varying proportions of mobile phase A (H2O with 0.1% formic acid) and mobile phase B (acetonitrile with 0.1% formic acid) at a constant flow rate of 400 μL/minute over a total run time of 10 minutes. LC-UV-MS extract ion chromatograms (EIC) of the T120 samples were compared to the T0 samples to identify the major putative metabolites which were named as Mm/z.

monkey hepatocytes = assay: In vitro metabolite profile in monkey hepatocytes; type: in vitro ADME; set-up: key to UV % at 280-290 nm or observed (+ or --), metabolite M387 (O-dealkylation) / UV % at 280-290 nm or observed (+ or --), metabolite M532b (Hydroxylation) / UV % at 280-290 nm or observed (+ or --), metabolite M532c (Hydroxylation) / UV % at 280-290 nm or observed (+ or --), metabolite M532d (Hydroxylation) / UV % at 280-290 nm or observed (+ or --), metabolite M563 (O-dealkylation + Glucuronidation) / UV % at 280-290 nm or observed (+ or --), metabolite M530b (Hydroxylation) / UV % at 280-290 nm or observed (+ or --), metabolite M530c (Hydroxylation) / UV % at 280-290 nm or observed (+ or --), metabolite M530d (Hydroxylation): +: only detected by MS; --: not detected or trace; details: 10 μM; for UV % at 280-290 nm, Parent-T0 min: T0 min (normalized as 100%)
Experimental: as §1

[2] = 120 min, relative to parent at T0

Cc1cnc(-c2ccnc(C(C)(C)O)n2)cc1-n1c(C)cc(OCc2ncc(F)cc2F)c(Cl)c1=O (atropisomer, axis not shown; (P)) [Example 1-H2, (P)-3-chloro-4-((3,5-difluoropyridin-2-yl)methoxy)-2′-(2-(2-hydroxypropan-2-yl)pyrimidin-4-yl)-5′,6-dimethyl-2H-[1,4′-bipyridin]-2-one]
AUC0-10 hr ([1]; ± one standard deviation): 854 ± 228 ng·h/mL | UV % at 280-290 nm or observed (+ or --), metabolite M387 (O-dealkylation) (rat hepatocytes; [2]): 16.2% | UV % at 280-290 nm or observed (+ or --), metabolite M530b (Hydroxylation) (rat hepatocytes; [2]): + | UV % at 280-290 nm or observed (+ or --), metabolite M530c (Hydroxylation) (rat hepatocytes; [2]): 1.1% | UV % at 280-290 nm or observed (+ or --), metabolite M530e (Hydroxylation) (rat hepatocytes; [2]): + | UV % at 280-290 nm or observed (+ or --), metabolite M563 (O-dealkylation + Glucuronidation) (rat hepatocytes; [2]): 1.06% | UV % at 280-290 nm or observed (+ or --), metabolite M530d (Hydroxylation) (rat hepatocytes; [2]): -- | UV % at 280-290 nm, Parent-T120 min (rat hepatocytes; [2]): 82.7% | UV % at 280-290 nm, Parent-T0 min (rat hepatocytes): 100.0% | UV % at 280-290 nm or observed (+ or --), metabolite M387 (O-dealkylation) (monkey hepatocytes; [2]): 4.8% | UV % at 280-290 nm or observed (+ or --), metabolite M530b (Hydroxylation) (monkey hepatocytes; [2]): -- | UV % at 280-290 nm or observed (+ or --), metabolite M530c (Hydroxylation) (monkey hepatocytes; [2]): + | UV % at 280-290 nm or observed (+ or --), metabolite M530e (Hydroxylation) (monkey hepatocytes; [2]): 1.5% | UV % at 280-290 nm or observed (+ or --), metabolite M563 (O-dealkylation + Glucuronidation) (monkey hepatocytes; [2]): + | UV % at 280-290 nm or observed (+ or --), metabolite M530d (Hydroxylation) (monkey hepatocytes; [2]): -- | UV % at 280-290 nm, Parent-T120 min (monkey hepatocytes; [2]): 85.7% | UV % at 280-290 nm, Parent-T0 min (monkey hepatocytes): 100.0%

[2H]C([2H])(Oc1cc(C)n(-c2cc(-c3ccnc(C(C)(C)O)n3)ncc2C)c(=O)c1Cl)c1ncc(F)cc1F (single isomer, unassigned) [Example 1-D2, (P)-3-Chloro-4-((3,5-difluoropyridin-2-yl)methoxy-d2)-2′-(2-(2-hydroxypropan-2-yl)pyrimidin-4-yl)-5′,6-dimethyl-2H-[1,4′-bipyridin]-2-one]
effect of deuterium substitution on exposure after PO dosing (AUC) ([1]; versus non-deuterated comparator, listed as Example 1): significantly higher exposure; also recorded: increased exposure | AUC(0-t) ([1]; Sprague-Dawley, rat, plasma, 2 mg/kg, ± one standard deviation, read-out: AUC0-10 hr): 2020 ± 120 ng·h/mL | UV % at 280-290 nm or observed (+ or --), metabolite M532b (Hydroxylation) (rat hepatocytes; [2]): -- | UV % at 280-290 nm or observed (+ or --), metabolite M532e (Hydroxylation) (rat hepatocytes; [2]): + | UV % at 280-290 nm or observed (+ or --), metabolite M532d (Hydroxylation) (rat hepatocytes; [2]): -- | UV % at 280-290 nm, Parent-T120 min (rat hepatocytes; [2]): 84.3% | UV % at 280-290 nm, Parent-T0 min (rat hepatocytes): 100.0% | UV % at 280-290 nm or observed (+ or --), metabolite M387 (O-dealkylation) (monkey hepatocytes; [2]): + | UV % at 280-290 nm or observed (+ or --), metabolite M532b (Hydroxylation) (monkey hepatocytes; [2]): -- | UV % at 280-290 nm or observed (+ or --), metabolite M532c (Hydroxylation) (monkey hepatocytes; [2]): + | UV % at 280-290 nm or observed (+ or --), metabolite M532d (Hydroxylation) (monkey hepatocytes; [2]): + | UV % at 280-290 nm, Parent-T120 min (monkey hepatocytes; [2]): 96.6% | UV % at 280-290 nm, Parent-T0 min (monkey hepatocytes): 100.0%
